{
  "source": "patent US8304418B2",
  "about": "“Pyrazolopyrimidinone kinase inhibitor” (Agennix AG, priority 2007, dated 2012)",
  "key": {"[1]": {"tested_on": "H460 NSCLC", "settings": "H460, 40 mg/kg po q2dx5", "protocol": "(§3) Xenograft Tumor-Models: 100 athymic nu/nu female mice (6-8 weeks old) from CRL were allowed to acclimate for 4 days. […] The 3rd passage of cells with approximate 90% confluence was used for these experiments. Briefly, on Day 0, mice were inoculated with 0.1 ml (total 5×10^6 cells) of the respective cell-type as a cell suspension (50×10^6 cells/ml) by subcutaneous injection into the fat pad area near the mammary gland under light anesthesia. When the average tumor weight in all mice reached over 100 mg (day 10), 80 animals with an average tumor size of 130 mg were selected and were randomly divided into 8 groups.\n(§4) A 20 G gavage needle was used for the oral treatment.\n(§5) Tumor growth and body weight were monitored and recorded three times a week. Tumors were measured by determining the length and width of the tumor with a digital caliper. Tumor weight was estimated using the following formula: Tumor Weight (mg)=(w^2×1)×0.52 where w=width and l=length in mm of the tumor.\n(§6) Experimental treatment may cause partial regression (PR) or complete regression (CR) of tumors. PR is defined when the tumor size is 50% or less than the starting (day 1) size but greater than 0.0 mg for three consecutive measurements during the course of the study. CR occurs when there is no measurable tumor mass for three consecutive measurements. Cures are defined when CR are maintained until the completion of the experiment.\n(§7) Mice were sacrificed when their tumors reached the 1000 mm^3 endpoint volume. Treatment efficacy was determined as Log Cell Kill (LCK).\n(§8) Toxic deaths are defined as deaths caused by compound treatment and not by advanced disease state. […] Non-tumor related deaths after this point are recorded, but not considered toxic deaths.\n(§9) Briefly, the empirical distributions of T and Td were derived from B=1000 realisations of random selection of n individual animals with replacement from the set i=1, . . . , n of the appropriate group of mice containing n evaluable animals, estimating the mean tumor size for such selection of animals for each time-point, and linear regression analysis from a semi-log plot of such averages against time. Dead mice and mice with no measurable tumor size were treated as missing data and were ignored when calculating the average."}, "[2]": {"tested_on": "HCT116 colon carcinoma cells", "settings": "HCT116, 100 mg/kg po qdx10 (R547 suspension)"}, "[3]": {"tested_on": "CDK4/6-specific phosphorylation of Rb on serine 780", "experiment": "In-cell Rb phosphorylation (immunoblot)", "format": "cell-based, human", "settings": "1 h, read-out: IC50 (uM) - Rb-5 phosphorylation", "source_text": "(§1) This set of assays represents CDKs involved in cell cycle progression (CDK1, 4/6), and the “regulatory CDK” (CDK9) which is involved in transcriptional regulation.\n(§2) The following cancer cell lines were investigated in the course of these studies: A2780 (ovarian), HCT116 (colon), RPMI8226 (myeloma), SKMel28 (melanoma), Colo205 (colorectal), MDA-MB-435 (melanoma), MDA-MB-453 (breast, carcinoma), MDA-MB-468 (breast, adenocarcinoma), A549 (lung), Raji (lymphoma, Burkitt). Cell lines were obtained from public repositories.\nCDK4/6-specific phosphorylation of Rb on serine 780 (Ser780phos). Asynchronous growing cells were treated with an appropriate concentration of test compound or DMSO for 1 hour. Proteins were extracted using the AllPrep RNA/Protein kit according to the manufacturer's recommendations (Qiagen, Germany). Rb was immunoprecipitated over night using Ab05 antibody (Oncogene Inc.). Proteins were separated by SDS-PAGE, blotted to PVDF membranes and analyzed with antibodies against total (sc-102; Santa Cruz) or Ser780-phosphorylated Rb proteins (Cell Signalling). Visualization and quantification was performed as above."}, "[4]": {"tested_on": "CDK1-dependent Eg-5 phosphorylation on threonine 927", "experiment": "In-cell Eg-5 phosphorylation (immunoblot)", "format": "cell-based, human", "settings": "1 h", "source_text": "as §1, §2\nCDK1-dependent Eg-5 phosphorylation on threonine 927 (Thr927phos). Thr927phos was investigated by arresting cells over night in G2/M phase with 25 ng/ml nocodazole (optimized final concentration) followed by treatment with DMSO as control or an appropriate concentration of test compound for 1 hour. Detached as well as adherent cells were collected and lysed with CLB-1 lysis buffer. the lysate cleared by centrifugation and subjected to SDS-PAGE. The proteins were blotted on PVDF membranes and subsequently analyzed by antibodies against total Eg-5 (Becton Dickinson) and Eg-5 Thr927phos (Bio legend). Visualization and estimation of IC50 was conducted as above."}, "[5]": {"tested_on": "human A2780 ovarian tumor cells", "protocol": "as §3, §4, §5, §6, §7, §8, §9"}, "[6]": {"tested_on": "CDK9-specific phosphorylation of RNA polymerase II (RNAPII) on serine 2", "experiment": "In-cell RNAPII phosphorylation (immunoblot)", "format": "cell-based, human", "settings": "3 h", "experimental": "as §2\nCDK9-specific phosphorylation of RNA polymerase II (RNAPII) on Serine 2 (Ser2). Asynchronous cells were treated with an appropriate concentration of test compound or DMSO as a control. After 3 h incubation (37° C./5% CO2) cells were lysed with CLB-1 lysis buffer (Zeptosense, Switzerland), the lysate was cleared by centrifugation (10 min, 13000 rpm, RT) and subjected to SDS-PAGE. Total protein was blotted on PVDF membranes and analyzed using antibodies against S2-phosphorylated RNAPII (H5; Covance) or total RNAPII (N-20; Santa Cruz) as an expression control. Visualization was conducted using secondary Alexa680- or IR800-coupled antibodies (Molecular Probes) against mouse or rabbit Fc tails on the Odyssey-system (Licor). Specific bands were quantified and IC50 values of inhibition of RNAPII phosphorylation were estimated."}, "[7]": {"target": "CDK6 (Homo sapiens, UniProt Q00534)", "sequence (Q00534 whole entry)": "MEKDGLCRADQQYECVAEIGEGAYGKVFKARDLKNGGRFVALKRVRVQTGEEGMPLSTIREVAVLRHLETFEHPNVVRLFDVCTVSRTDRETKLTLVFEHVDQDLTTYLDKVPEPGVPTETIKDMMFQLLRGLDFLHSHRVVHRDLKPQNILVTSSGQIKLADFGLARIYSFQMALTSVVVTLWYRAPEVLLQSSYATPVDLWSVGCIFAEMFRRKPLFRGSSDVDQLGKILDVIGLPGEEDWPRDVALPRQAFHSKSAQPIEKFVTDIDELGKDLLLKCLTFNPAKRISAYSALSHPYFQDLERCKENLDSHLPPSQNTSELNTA", "sequence (P30281 whole entry partner)": "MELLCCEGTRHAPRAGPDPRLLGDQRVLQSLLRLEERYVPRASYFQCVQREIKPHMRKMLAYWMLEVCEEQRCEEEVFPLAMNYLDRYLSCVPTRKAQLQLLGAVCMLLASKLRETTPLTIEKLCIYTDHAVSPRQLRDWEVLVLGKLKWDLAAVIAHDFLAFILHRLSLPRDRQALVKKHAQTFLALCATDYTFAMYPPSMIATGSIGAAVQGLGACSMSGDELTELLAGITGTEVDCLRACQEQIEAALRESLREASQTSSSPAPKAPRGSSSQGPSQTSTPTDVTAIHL", "experiment": "Biochemical CDK6 inhibition assay", "experimental": "The assays used for determining the properties of the kinase inhibitors were performed in accordance with standard procedures well known to those skilled in the art. For example, assays for determining inhibitory activity on CDKs or in cellular assays are described in WO 00/218962, WO 2005/026129, and WO 2005/063765. Solubility assays at pH 7.4 were essentially performed as described by Avdeef, A. in Pharmacokinetic Optimization in Drug Research; Testa, B.; van de Waterbeemd, H.; Folkers, G.; Guy, R. Eds.; Wiley-VHC: Zurich, 2001; pp 305-326. PAMPA permeability assays at pH 7.4 were essentially performed as described in Kansy et al., J. Med. Chem. 41: 1007-10, 1998."}},
  "note": "“And” between values parts separate entries of the source, which are not always exact repeats. Equal entries are not always repeated. Where two headings read alike, the source gives them in different places.",
  "data": [
    {"smiles": "COc1ccc(F)c(F)c1C(=O)c1cnc(NC2CCN(S(C)(=O)=O)CC2)nc1N", "note": "[Compound R547]", "values": [
      {"measurement": "LCK ± CI (95%) (Td: 2.6 d)", "setting": "[1]", "result": "0.48 ± 0.20 and 0.48"},
      {"measurement": "Max % BW Loss (d)", "setting": "[1]; day 8", "result": "1.3 (8) %"},
      {"measurement": "Max % TGI (d)", "setting": "[1]; day 13", "result": "47.5 (13) %"},
      {"measurement": "LCK ± CI (95%) (Td: 6.8 d)", "setting": "[2]", "result": "0.70 ± 0.28"},
      {"measurement": "Max % BW Loss (d)", "setting": "[2]; day 12", "result": "14.5 (12) %"},
      {"measurement": "Max % TGI (d)", "setting": "[2]; day 16", "result": "72.8 (16) %"},
      {"measurement": "IC50", "setting": "[3]; A2780 cells", "result": "~0.1", "unit": "µM"},
      {"measurement": "IC50", "setting": "[3]; Colo205 cells", "result": "~0.1", "unit": "µM"},
      {"measurement": "IC50", "setting": "[3]; HCT116 cells", "result": "~0.1", "unit": "µM"},
      {"measurement": "IC50", "setting": "[3]; MDA-MB-435 cells", "result": "~0.3", "unit": "µM"},
      {"measurement": "IC50", "setting": "[3]; RPMI8226 cells", "result": "~0.3", "unit": "µM"},
      {"measurement": "IC50", "setting": "[3]; Sk-mel-28 cells", "result": "~0.1", "unit": "µM"},
      {"measurement": "IC50", "setting": "[4]; A549 cells", "result": "~0.03", "unit": "µM"},
      {"measurement": "IC50", "setting": "[4]; A2780 cells", "result": "~0.01", "unit": "µM"},
      {"measurement": "IC50", "setting": "[4]; Colo205 cells", "result": "~0.05", "unit": "µM"},
      {"measurement": "IC50", "setting": "[4]; HCT116 cells", "result": "~0.1", "unit": "µM"},
      {"measurement": "IC50", "setting": "[4]; MDA-MB-435 cells", "result": "~0.1", "unit": "µM"},
      {"measurement": "IC50", "setting": "[4]; MDA-MB-453 cells", "result": "~0.1", "unit": "µM"},
      {"measurement": "IC50", "setting": "[4]; RPMI8226 cells", "result": "~0.05", "unit": "µM"},
      {"measurement": "IC50", "setting": "[4]; Raji cells", "result": "~0.1", "unit": "µM"},
      {"measurement": "LCK ± CI (95%) (Td: 1.7 d)", "setting": "[5]; 100 mg/kg po qdx1", "result": "1.05 ± 0.56"},
      {"measurement": "Max % BW Loss (d)", "setting": "[5]; 100 mg/kg po qdx1 (planned qdx10), day 9", "result": "7.5 (9) %"},
      {"measurement": "Max % TGI (d)", "setting": "[5]; 100 mg/kg po qdx1, day 11", "result": "68.5 (11) %"},
      {"measurement": "IC50", "setting": "[6]; A2780 cells", "result": "~1", "unit": "µM"},
      {"measurement": "IC50", "setting": "[6]; Colo205 cells", "result": "~0.5", "unit": "µM"},
      {"measurement": "IC50", "setting": "[6]; HCT116 cells", "result": "~0.3", "unit": "µM"},
      {"measurement": "IC50", "setting": "[6]; MDA-MB-468 cells", "result": "~0.3", "unit": "µM"},
      {"measurement": "IC50", "setting": "[6]; RPMI8226 cells", "result": "~0.5", "unit": "µM"},
      {"measurement": "IC50", "setting": "[6]; Sk-mel-28 cells", "result": "~0.3", "unit": "µM"},
      {"measurement": "IC50", "setting": "[7]", "result": "~10", "unit": "nM"}
    ]}
  ]
}
